Test results: patent US12043613B2, “Inhibitors of SARM1” (Disarm Therapeutics, Inc., priority 2020, dated 2024)

Biological target: T1, SARM1 (ARM-SAM-TIR, full length SARM1) (Homo sapiens, UniProt Q6SZW1)
T1 sequence (Q6SZW1 with tags, fused parts or gaps): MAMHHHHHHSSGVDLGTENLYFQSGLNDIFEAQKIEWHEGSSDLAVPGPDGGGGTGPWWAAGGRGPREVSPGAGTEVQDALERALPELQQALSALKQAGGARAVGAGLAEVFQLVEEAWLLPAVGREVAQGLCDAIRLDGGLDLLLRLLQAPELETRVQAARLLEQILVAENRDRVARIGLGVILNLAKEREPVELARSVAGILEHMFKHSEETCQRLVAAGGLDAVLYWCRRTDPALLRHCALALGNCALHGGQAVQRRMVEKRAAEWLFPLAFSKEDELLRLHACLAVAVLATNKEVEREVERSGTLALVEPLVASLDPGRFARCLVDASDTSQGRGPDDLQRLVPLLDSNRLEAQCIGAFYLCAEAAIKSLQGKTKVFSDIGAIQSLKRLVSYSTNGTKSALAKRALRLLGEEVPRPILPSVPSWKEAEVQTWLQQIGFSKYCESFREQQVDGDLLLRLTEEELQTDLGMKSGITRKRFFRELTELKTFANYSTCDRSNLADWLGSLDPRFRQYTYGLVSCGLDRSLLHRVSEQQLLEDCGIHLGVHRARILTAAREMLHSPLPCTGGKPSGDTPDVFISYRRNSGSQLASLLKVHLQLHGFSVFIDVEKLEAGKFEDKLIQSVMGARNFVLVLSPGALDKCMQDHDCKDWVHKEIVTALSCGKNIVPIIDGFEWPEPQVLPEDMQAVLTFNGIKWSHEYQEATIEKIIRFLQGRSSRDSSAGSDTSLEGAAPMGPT
Test: biochemical
Conditions: SARM1 IC50 (nM), ARM-SAM-TIR lysate 5 μg/mL from NRK1-HEK293T cells, 2 h pre-incubation, 5 uM NAD+, 2 hr room temperature
Experimental: This assay makes use of full length SARM1, which encompasses the ARM, SAM and TIR domains.
Preparation of ARM-SAM-TIR lysate (STL)
NRK1-HEK293T cells were seeded onto 150 cm^2 plates at 20×10^6 cells per plate. The next day, the cells were transfected with 15 g ARM-SAM-TIR expression plasmid, SEQ ID NO: 1.
The cultures were supplemented with 1 mM NR at time of transfection to minimize toxicity from ARM-SAM-TIR overexpression. Forty-eight hours after transfection, cells were harvested, pelleted by centrifugation at 1,000 rpm (Sorvall ST 16R centrifuge, Thermo Fisher), and washed once with cold PBS (0.01 M phosphate buffered saline NaCl 0.138 M; KCl 0.0027 M; pH 7.4). The cells were resuspended in PBS with protease inhibitors (cOmplete™ protease inhibitor cocktail, Roche product #11873580001) and cell lysates were prepared by sonication (Branson Sonifer 450, output=3, 20 episodes of stroke). The lysates were centrifuged (12,000×g for 10 min at 4° C.) to remove cell debris and the supernatants (containing ARM-SAM-TIR protein) were stored at −80° C. for later use in the in vitro ARM-SAM-TIR NADase assay (see below). Protein concentration was determined by the Bicinchoninic (BCA) method and used to normalize lysate concentrations.
ARM-SAM-TIR IC50 assay of Formula I compounds.
The enzymatic assay was performed in a 384-well polypropylene plate in Dulbecco's PBS buffer in a final assay volume of 20 μL. ARM-SAM-TIR lysate with a final concentration of 5 μg/mL was pre-incubated with the respective compound at 1% DMSO final assay concentration over 2h at room temperature. The reaction was initiated by addition of 5 uM final assay concentration of NAD+ as substrate. After a 2 hr room temperature incubation, the reaction was terminated with 40 μL of stop solution of 7.5% trichloroactetic acid in acetonitrile. The NAD+ and ADPR concentrations were analyzed by a RapidFire High Throughput Mass Spectrometry System (Agilent Technologies, Santa Clara, Calif.) using an API4000 triple quadrupole mass spectrometer (AB Sciex Framingham, Mass.).

Row | IC50 [nM] | SMILES
1 | < 50 | O=C1C(Cc2ccc(Cl)cc2)CCCN1c1cc(-c2ccncc2)n[nH]1 (single isomer, unassigned) [I-19* (peak 1)]
2 | < 50 | O=C1C(Cc2ccc(Cl)c(F)c2)CCCN1c1cc(-c2ccncc2)n[nH]1 (single isomer, unassigned) [I-20* (peak 1)]
3 | 101 to 500 | O=C1C(Cc2ccc(Cl)nc2)CCCN1c1cc(-c2ccncc2)n[nH]1 (single isomer, unassigned) [I-21* (peak 1)]
4 | < 50 | O=C1C(Cc2ccc(Cl)nc2)CCCN1c1cc(-c2ccncc2)n[nH]1 (single isomer, unassigned) [I-21* (peak 2)]
5 | 101 to 500 | N#Cc1ccc(CC2CCN(c3[nH]nc(-c4ccncc4)c3F)C2=O)cc1F (single isomer, unassigned) [I-25* (peak 1)]
6 | < 50 | N#Cc1ccc(CC2CCN(c3[nH]nc(-c4ccncc4)c3F)C2=O)cc1F (single isomer, unassigned) [I-25* (peak 2)]
7 | 101 to 500 | N#Cc1ccc(CC2CCN(c3nnc(-c4ccncc4)[nH]3)C2=O)cc1F (single isomer, unassigned) [I-26* (peak 1)]
8 | 51 to 100 | O=C1C(Cc2ccc(F)nc2)CCN1c1[nH]nc(-c2ccncc2)c1Cl (single isomer, unassigned) [I-32* (peak 1)]
9 | < 50 | O=C1C(Cc2ccc(F)nc2)CCN1c1[nH]nc(-c2ccncc2)c1Cl (single isomer, unassigned) [I-32* (peak 2)]
10 | 51 to 100 | O=C1C(Cc2ccc(F)nc2)CCN1c1[nH]nc(-c2ccncc2)c1F (single isomer, unassigned) [I-33* (peak 1)]
11 | < 50 | O=C1C(Cc2ccc(F)nc2)CCN1c1[nH]nc(-c2ccncc2)c1F (single isomer, unassigned) [I-33* (peak 2)]
12 | < 50 | O=C1C(Cc2ccc(Cl)nc2)CCN1c1[nH]nc(-c2ccncc2)c1Cl (single isomer, unassigned) [I-34* (peak 1)]
13 | 51 to 100 | N#Cc1ccc(CC2CCN(c3cc(-c4ccncc4)n[nH]3)C2=O)cc1F (single isomer, unassigned) [I-37* (peak 1)]

The remaining lines, values behind:

Row | SMILES | IC50 [nM]
14 | N[C@H]1CC(Cc2ccc(Cl)nc2)C(=O)N(c2nnc(-c3ccncc3)[nH]2)C1 (single isomer, unassigned) [Compound I-61] | > 1000
15 | O=C1C(Cc2ccc(Cl)cc2)CCN1c1nnc(-c2ccncc2)[nH]1 (single isomer, unassigned) [I-4* (peak 1)] | < 50
16 | O=C1C(Cc2ccc(Cl)cc2)CCCN1c1nnc(-c2ccncc2)[nH]1 (single isomer, unassigned) [I-5* (peak 1)] | < 50
17 | Cc1c(N2CCC(Cc3ccc(Cl)cc3)C2=O)n[nH]c1-c1ccncc1 (single isomer, unassigned) [I-6* (peak 1)] | 51 to 100
18 | O=C1C(Cc2ccc(F)cc2)CCN1c1nnc(-c2ccncc2)[nH]1 (single isomer, unassigned) [I-7* (peak 1)] | 101 to 500
19 | O=C1C(Cc2ccc(F)cc2)CCN1c1nnc(-c2ccncc2)[nH]1 (single isomer, unassigned) [I-7* (peak 2)] | < 50
20 | O=C1C(Cc2ccc(Cl)c(F)c2)CCN1c1nnc(-c2ccncc2)[nH]1 (single isomer, unassigned) [I-8* (peak 1)] | < 50
21 | O=C1C(Cc2ccc(Cl)nc2)CCN1c1nnc(-c2ccncc2)[nH]1 (single isomer, unassigned) [I-9* (peak 1)] | 101 to 500
22 | O=C1C(Cc2ccc(Cl)nc2)CCN1c1nnc(-c2ccncc2)[nH]1 (single isomer, unassigned) [I-9* (peak 2)] | 51 to 100
23 | O=C1C(Cc2ccc(F)c(F)c2)CCN1c1nnc(-c2ccncc2)[nH]1 (single isomer, unassigned) [I-11* (peak 1)] | < 50
24 | O=C1C(Cc2ccc(F)c(F)c2)CCN1c1nnc(-c2ccncc2)[nH]1 (single isomer, unassigned) [I-11* (peak 2)] | 51 to 100
25 | O=C1C(Cc2ccc(F)c(F)c2)CCN1c1cc(-c2ccncc2)n[nH]1 (single isomer, unassigned) [I-16* (peak 1)] | < 50
